According to US6855697B1, “Troxerutin with a high content of trihydroxyethylrutoside and process for its preparation” (Negma-Lerads, priority 1998, dated 2005):
“Also recorded” adds a separate entry of the source.

Test system: red blood cell aggregation
Assay: Ex vivo inhibition of red blood cell aggregation on human blood
Type: cell-based
Source text: This difference in efficacy was confirmed by the superiority of the enriched troxerutin according to the invention (trihydroxyethylrutoside content in the region of 95%) compared with commercially available troxerutins (content in the region of 84%). The advantage of decreasing the aggregation of red blood cells lies in a reduction in the total blood viscosity, and consequently in better fluidity of the blood. This property is manifested by an increase in the venous return and in the microcirculatory flow rate (increase in the density of the infused capillaries).

SMILES | Inhibition of red blood cell aggregation
C[C@@H]1O[C@@H](OC[C@H]2O[C@@H](Oc3c(-c4ccc(OCCO)c(OCCO)c4)oc4cc(OCCO)cc(O)c4c3=O)[C@H](O)[C@@H](O)[C@@H]2O)[C@H](O)[C@H](O)[C@H]1O [trihydroxyethyl derivative, 7,3′,4′-trihydroxyethylrutoside] | significantly improved; also recorded: more effective than the tetrahydroxyethyl derivative
C[C@@H]1O[C@@H](OC[C@H]2O[C@@H](Oc3c(-c4ccc(OCCO)c(OCCO)c4)oc4cc(OCCO)cc(OCCO)c4c3=O)[C@H](O)[C@@H](O)[C@@H]2O)[C@H](O)[C@H](O)[C@H]1O [tetrahydroxyethyl derivative, 5,7,3′,4′-tetrahydroxyethylrutoside, reference compound] | significantly improved
